Test results reported in patent publication US20240327433A1, “PYRIMIDOPYRAN COMPOUND” (Medshine Discovery Inc., priority 2021, published 2024).
Counter-ions that a name gives are not always drawn.

Experiments:
p-ERK in GP2D cells = assay: Assay of p-ERK inhibition in GP2D cells (HTRF); assay type: cell-based; conditions: 1 hour incubation
Description: The cell plate was inoculated in a carbon dioxide incubator at 37° C. overnight; • 2) 2 μL of the compound was weighed and added to 78 μL of the cell medium. After the mixture was mixed thoroughly, 20 μL of the solution of compound was weighed and added to the corresponding well of the cell plate. The cell plate was placed back to the carbon dioxide incubator and incubated for another 1 hour; • 3) After completion of the incubation, the cell supernatant was discarded. 50 μL of 1× cell lysate was added to each well. The mixture was incubated with shaking at room temperature for 30 minutes; • 4) Phospho-ERK1/2 Eu Cryptate antibody and Phospho-ERK1/2 d2 antibody were diluted 20-fold with detection buffer; • 5) 16 μL of cell lysate supernatant was weighed and added into each well of a new 384 white microwell plate, and then 2 μL of the diluted solution of Phospho-ERK1/2 Eu Cryptate antibody and 2 μL of the diluted solution of Phospho-ERK1/2 d2 antibody dilution were added. The mixture was incubated at room temperature for at least 4 hours; • 6) After completion of the incubation, HTRF was read with multi-label analyzer: excitation: 320 nm, emission: 615 nm, 665 nm; • 7). IC50 of the compounds to be assayed was calculated.

[1] = test system: xenograft tumor of human colon cancer GP2D; assay: Pharmacodynamics in vivo: Balb/c nude mouse subcutaneous xenograft of human colon cancer GP2D cells; conditions: PO, BID*20, 20th day
Description: A Balb/c nude mouse model of subcutaneously xenograft tumor of human colon cancer GP2D cell was established. 0.2 mL (2×10^6) of GP2D cells (Matrigel was added, and volume ratio was 1:1) were inoculated subcutaneously on the right back of each mouse. When the average tumor volume reached 149 mm^3, the administration was started by group, with 6 mice in each group. On the day of the assay, the animals were administered the corresponding drugs according to the corresponding groups. The first group G1 was set as a negative control group, which was given 5% DMSO+95%(10% HP-β-CD) alone by gavage administration. The second group G2 to the fourth group G4 were given compound 1 hydrochloride, and the dosage and protocol of administration were shown in Table 13.
During the assay, the body weight of animals and the tumor size were measured twice a week. Meanwhile clinical symptoms of animals were observed and recorded every day. Each administration was referenced to the most recent body weight of animals.
The length (a) and width (b) of a tumor were measured with a digital vernier caliper. The calculation formula of tumor volume (Tumor volume, TV) was: TV=a×b^2/2.

[2] = Plasma protein binding (PPB), equilibrium dialysis, cynomolgus monkey plasma; assay type: in vitro ADME; conditions: 2 μM, unbound rate
Description: (§1) The protein binding rates of the compound in the plasma of CD-1 mouse, Sprague-Dawley rat, Beagle dog, cynomolgus monkey and human were determined by equilibrium dialysis method.
(§2) The plasmas of the above-mentioned five species were formulated to plasma samples with a compound concentration of 2 μM. The plasma samples were placed in a 96-well rapid equilibrium dialysis device, and dialyzed against phosphate buffered saline at 37±1° C. for 4 h. In this assay, warfarin was used as a control compound. The concentrations of analytes in plasma and dialysis buffer were determined by LC-MS/MS mothed.

KRAS^G12D AsPC-1 = assay: Anti-cell proliferation effect in tumor cell line AsPC-1 (CellTiter-Glo 3D); assay type: cell-based; conditions: Homo sapiens, ASPC1, AsPC-1, 120 hours
Description: In this assay, the effect of the compounds on inhibiting cell proliferation was studied by detecting the effect of the compounds on the cell activity in vitro in the tumor cell lines AsPC-1 and GP2D.
The tumor cell lines were cultured in a 37° C., 5% CO2 incubator according to the culture conditions indicated in the culture method. Cells were passaged regularly, and cells in logarithmic growth phase were used for plating.
Cells were stained with trypan blue and viable cells were counted.
The cell concentration was adjusted to an appropriate concentration.
To each well of a ULA culture plate was added 135 μL of cell suspension. To the blank control well was added the same volume of culture medium without cells.
After plating, the ULA culture plate was immediately centrifuged at room temperature at 1000 rpm for 10 minutes. Note: After completion of the centrifugation, subsequent operations must be processed carefully to avoid unnecessary shocks.
The culture plate was incubated in a 37° C., 5% CO2, 100% relative humidity incubator overnight.
10× compound working solution (10× working solution in DMSO) was formulated, and then to the ULA culture plate was add 15 μL of 10× compound working solution, and to the vehicle control and blank control was added 15 μL of DMSO-cell culture medium mixture, respectively. […]
The luminescent signal was detected on a 2104 EnVision plate reader. […]

[3] = Plasma protein binding (PPB), equilibrium dialysis, Beagle dog plasma; assay type: in vitro ADME; conditions: 2 μM, unbound rate
Description: as §1, §2

Cc1cc(N)c(F)c(C2Cc3nc(OC[C@@]45CCCN4C[C@H](F)C5)nc(N4CC5CCC(C4)N5)c3CO2)c1C(F)(F)F (stereo partly shown) [Compound 1 hydrochloride]
IC50 (p-ERK in GP2D cells): 0.8 nM | Tumor volume inhibition rate TGI (%) ([1]; G2, 3 mg/kg): 19.4% | Tumor volume inhibition rate TGI (%) ([1]; G3, 10 mg/kg): 53.9% | Tumor volume inhibition rate TGI (%) ([1]; G4, 30 mg/kg): 83.7% | Unbound PPB C [2]: 6.3% | IC50 (KRAS^G12D AsPC-1): 315 nM | Unbound PPB D [3]: 5.2%
